From patent publication US20100267561A1, “HERBICIDAL PYRIDAZINONE DERIVATIVES” (priority 2007, published 2010)

Tests used:
Type in all cases: in vivo
[1] = system: blackgrass (Alopecurus myosuroides); experiment: Test B pre-/postemergence plant response
Outline: (§1)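 Visual scoring from 0 (no effect) to 100 (complete control) against untreated controls was done 13 to 15 days after greenhouse treatment. Chemicals were formulated in a surfactant-containing non-phytotoxic solvent and applied to soil preemergence or to 1- to 4-leaf (2-18 cm) plants postemergence.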

[2] = system: morningglory (Ipomoea coccinea); experiment: Test B pre-/postemergence plant response; details: for Morningglory plant response rating: 8 g ai/ha
Outline: as §1

[3] = system: lambsquarters (Chenopodium album); experiment: Test B pre-/postemergence plant response; details: for Lambsquarters plant response rating: 8 g ai/ha
Outline: as §1

[4] = system: velvetleaf (Abutilon theophrasti); experiment: Test A pre-/postemergence plant response
Outline: (§2)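 Greenhouse pot test: loam–sand soil; pre- and postemergence sprays applied same day; post plants 2–10 cm, 1–2 leaves. Readout ~10 d, visual % injury vs untreated (0 = none, 100 = complete control).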

[5] = system: wheat (Triticum aestivum); experiment: Test A pre-/postemergence plant response
Outline: as §2

[6] = system: barnyardgrass (Echinochloa crus-galli); experiment: Test A pre-/postemergence plant response
Outline: as §2

[7] = system: morningglory (Ipomoea coccinea); experiment: Test A pre-/postemergence plant response
Outline: as §2

[8] = system: large crabgrass (Digitaria sanguinalis); experiment: Test A pre-/postemergence plant response
Outline: as §2

[9] = system: giant foxtail (Setaria faberi); experiment: Test A pre-/postemergence plant response
Outline: as §2

corn (Zea mays) = experiment: Test A pre-/postemergence plant response
Outline: as §2

[10] = system: pigweed (Amaranthus retroflexus); experiment: Test A pre-/postemergence plant response
Outline: as §2

[11] = Postemergence, 31 g ai/ha, scale 0 to 100, 0 no effect, 100 complete control
[12] = Postemergence, 62 g ai/ha, scale 0 to 100
[13] = Postemergence, 125 g ai/ha, scale 0 to 100
[14] = Postemergence, 250 g ai/ha, scale 0 to 100
[15] = Preemergence, 31 g ai/ha, 0 to 100 scale, 0 no effect, 100 complete control
[16] = Preemergence, 62 g ai/ha, scale 0 to 100
[17] = Preemergence, 125 g ai/ha, scale 0 to 100
[18] = Preemergence, 250 g ai/ha, scale 0 to 100
[19] = Postemergence, 125 g ai/ha, 0 to 100 scale, 0 no effect, 100 complete control
[20] = Postemergence, 500 g ai/ha, 0 to 100 scale, 0 no effect, 100 complete control
[21] = Preemergence, 125 g ai/ha, 0 to 100 scale (0 no effect, 100 complete control)
[22] = Preemergence, 500 g ai/ha, 0 to 100 scale (0 no effect, 100 complete control)
[23] = Preemergence, 16 g ai/ha, scale 0 to 100 (0 no effect, 100 complete control)
[24] = Postemergence, 16 g ai/ha, scale 0 to 100
[25] = Postemergence, 62 g ai/ha, scale 0 to 100, 0 no effect, 100 complete control
[26] = Postemergence, 31 g ai/ha, 0 to 100 scale, 0 no effect, 100 complete control
[27] = Preemergence, 31 g ai/ha, 0 to 100 scale, 0 is no effect, 100 is complete control

## Cc1cc(-c2ccc(Br)cc2)nn1-c1c(OC(=O)C2CC2)cnn(C)c1=O [Compound 5]
[1]; 250 g ai/ha, preemergence, 0-100 scale
  Blackgrass plant response rating: 100
[1]; [11]
  Plant response rating, Blackgrass: 95
[1]; [12]
  Plant response rating, Blackgrass: 100
[1]; [13]
  Plant response rating, Blackgrass: 100
[1]; [14]
  Plant response rating, Blackgrass: 100
[1]; [15]
  Plant response rating, Blackgrass: 100
[1]; [16]
  Plant response rating, Blackgrass: 100
[1]; [17]
  Plant response rating, Blackgrass: 100
[2]; [11]
  Plant response rating, Morningglory: 0
[2]; [12]
  Plant response rating, Morningglory: 0
[2]; [13]
  Plant response rating, Morningglory: 0
[2]; [14]
  Plant response rating, Morningglory: 0
[2]; [15]
  Plant response rating, Morningglory: 0
[2]; [16]
  Plant response rating, Morningglory: 0
[2]; [17]
  Plant response rating, Morningglory: 0
[2]; [18]
  Plant response rating, Morningglory: 0
[3]; [11]
  Plant response rating, Lambsquarters: 0
[3]; [12]
  Plant response rating, Lambsquarters: 20
[3]; [13]
  Plant response rating, Lambsquarters: 80
[3]; [14]
  Plant response rating, Lambsquarters: 80
[3]; [17]
  Plant response rating, Lambsquarters: 90
[3]; [18]
  Plant response rating, Lambsquarters: 100
[4]; [19]
  Plant response rating, Velvetleaf: 20
[4]; [20]
  Plant response rating, Velvetleaf: 50
[4]; [21]
  Plant response rating, Velvetleaf: 0
[4]; [22]
  Plant response rating, Velvetleaf: 20
[5]; [19]
  Plant response rating, Wheat: 60
[5]; [20]
  Plant response rating, Wheat: 70
[5]; [21]
  Plant response rating, Wheat: 90
[5]; [22]
  Plant response rating, Wheat: 100
[6]; [19]
  Plant response rating, Barnyardgrass: 100
[6]; [20]
  Plant response rating, Barnyardgrass: 100
[6]; [21]
  Plant response rating, Barnyardgrass: 90
[6]; [22]
  Plant response rating, Barnyardgrass: 100
[7]; [19]
  Plant response rating, Morningglory: 0
[7]; [20]
  Plant response rating, Morningglory: 0
[7]; [21]
  Plant response rating, Morningglory: 0
[7]; [22]
  Plant response rating, Morningglory: 0
[8]; [19]
  Plant response rating, Crabgrass, Large: 100
[8]; [20]
  Plant response rating, Crabgrass, Large: 100
[8]; [21]
  Plant response rating, Crabgrass, Large: 100
[8]; [22]
  Plant response rating, Crabgrass, Large: 100
[9]; [19]
  Plant response rating, Foxtail, Giant: 100
[9]; [20]
  Plant response rating, Foxtail, Giant: 100
[9]; [21]
  Plant response rating, Foxtail, Giant: 100
[9]; [22]
  Plant response rating, Foxtail, Giant: 100
Corn (Zea mays); [19]
  Plant response rating, Corn: 100
Corn (Zea mays); [20]
  Plant response rating, Corn: 100
Corn (Zea mays); [21]
  Plant response rating, Corn: 80
Corn (Zea mays); [22]
  Plant response rating, Corn: 90
[10]; [19]
  Plant response rating, Pigweed: 0
[10]; [20]
  Plant response rating, Pigweed: 0
[10]; [21]
  Plant response rating, Pigweed: 0
[10]; [22]
  Plant response rating, Pigweed: 0

## Cc1cc(-c2ccc(C(F)(F)F)cc2)nn1-c1c(O)c(C(C)C)nn(C)c1=O [Compound 27]
[1]; [23]
  Plant response rating, Blackgrass: 20
[1]; [15]
  Plant response rating, Blackgrass: 50
[1]; [16]
  Plant response rating, Blackgrass: 100
[2]; [23]
  Plant response rating, Morningglory: 0
[2]; [15]
  Plant response rating, Morningglory: 0
[2]; [16]
  Plant response rating, Morningglory: 0
[2]; Preemergence, scale 0 to 100
  Morningglory plant response rating: 0
[3]; [23]
  Plant response rating, Lambsquarters: 0
[3]; [16]
  Plant response rating, Lambsquarters: 0
[3]; Preemergence, scale 0 to 100
  Lambsquarters plant response rating: 0
[4]; [19]
  Plant response rating, Velvetleaf: 0
[4]; [20]
  Plant response rating, Velvetleaf: 0
[4]; [21]
  Plant response rating, Velvetleaf: 0
[4]; [22]
  Plant response rating, Velvetleaf: 0
[5]; [19]
  Plant response rating, Wheat: 50
[5]; [20]
  Plant response rating, Wheat: 90
[5]; [21]
  Plant response rating, Wheat: 40
[5]; [22]
  Plant response rating, Wheat: 100
[6]; [19]
  Plant response rating, Barnyardgrass: 20
[6]; [20]
  Plant response rating, Barnyardgrass: 90
[6]; [21]
  Plant response rating, Barnyardgrass: 80
[6]; [22]
  Plant response rating, Barnyardgrass: 100
[7]; [19]
  Plant response rating, Morningglory: 0
[7]; [20]
  Plant response rating, Morningglory: 0
[7]; [21]
  Plant response rating, Morningglory: 0
[7]; [22]
  Plant response rating, Morningglory: 0
[8]; [19]
  Plant response rating, Crabgrass, Large: 60
[8]; [20]
  Plant response rating, Crabgrass, Large: 80
[8]; [21]
  Plant response rating, Crabgrass, Large: 80
[8]; [22]
  Plant response rating, Crabgrass, Large: 100
[9]; [19]
  Plant response rating, Foxtail, Giant: 50
[9]; [20]
  Plant response rating, Foxtail, Giant: 90
[9]; [21]
  Plant response rating, Foxtail, Giant: 80
[9]; [22]
  Plant response rating, Foxtail, Giant: 90
Corn (Zea mays); [19]
  Plant response rating, Corn: 50
Corn (Zea mays); [20]
  Plant response rating, Corn: 80
Corn (Zea mays); [21]
  Plant response rating, Corn: 20
Corn (Zea mays); [22]
  Plant response rating, Corn: 80
[10]; [19]
  Plant response rating, Pigweed: 0
[10]; [20]
  Plant response rating, Pigweed: 0
[10]; [21]
  Plant response rating, Pigweed: 0
[10]; [22]
  Plant response rating, Pigweed: 0

## Cc1cc(-c2ccc(Cl)cc2)nn1-c1c(OS(=O)(=O)c2ccccc2)cnn(C)c1=O [Compound 35]
[1]; 8 g ai/ha, postemergence, 0-100 scale
  Blackgrass plant response rating: 0
[1]; [24]
  Plant response rating, Blackgrass: 60
[1]; [11]
  Plant response rating, Blackgrass: 70
[1]; [25]
  Plant response rating, Blackgrass: 90
[1]; [23]
  Plant response rating, Blackgrass: 85
[1]; [15]
  Plant response rating, Blackgrass: 100
[1]; [16]
  Plant response rating, Blackgrass: 100
[1]; Preemergence, 8 g ai/ha, scale 0 to 100
  Blackgrass plant response rating: 0
[2]; postemergence, 0-100 scale
  Morningglory plant response rating: 0
[2]; [24]
  Plant response rating, Morningglory: 0
[2]; [11]
  Plant response rating, Morningglory: 0
[2]; [25]
  Plant response rating, Morningglory: 0
[2]; [23]
  Plant response rating, Morningglory: 0
[2]; [15]
  Plant response rating, Morningglory: 0
[2]; [16]
  Plant response rating, Morningglory: 10
[2]; Preemergence, scale 0 to 100
  Morningglory plant response rating: 0
[3]; postemergence, 0-100 scale
  Lambsquarters plant response rating: 0
[3]; [24]
  Plant response rating, Lambsquarters: 0
[3]; [11]
  Plant response rating, Lambsquarters: 0
[3]; [25]
  Plant response rating, Lambsquarters: 0
[3]; [23]
  Plant response rating, Lambsquarters: 0
[3]; [15]
  Plant response rating, Lambsquarters: 0
[3]; [16]
  Plant response rating, Lambsquarters: 0
[3]; Preemergence, scale 0 to 100
  Lambsquarters plant response rating: 0
[4]; [26]
  Plant response rating, Velvetleaf: 0
[4]; [19]
  Plant response rating, Velvetleaf: 0
[4]; [27]
  Plant response rating, Velvetleaf: 0
[4]; [21]
  Plant response rating, Velvetleaf: 0
[5]; [26]
  Plant response rating, Wheat: 0
[5]; [19]
  Plant response rating, Wheat: 60
[5]; [27]
  Plant response rating, Wheat: 20
[5]; [21]
  Plant response rating, Wheat: 80
[6]; [26]
  Plant response rating, Barnyardgrass: 60
[6]; [19]
  Plant response rating, Barnyardgrass: 90
[6]; [27]
  Plant response rating, Barnyardgrass: 80
[6]; [21]
  Plant response rating, Barnyardgrass: 100
[7]; [26]
  Plant response rating, Morningglory: 0
[7]; [19]
  Plant response rating, Morningglory: 0
[7]; [27]
  Plant response rating, Morningglory: 0
[7]; [21]
  Plant response rating, Morningglory: 0
[8]; [26]
  Plant response rating, Crabgrass, Large: 40
[8]; [19]
  Plant response rating, Crabgrass, Large: 90
[8]; [27]
  Plant response rating, Crabgrass, Large: 90
[8]; [21]
  Plant response rating, Crabgrass, Large: 100
[9]; [26]
  Plant response rating, Foxtail, Giant: 60
[9]; [19]
  Plant response rating, Foxtail, Giant: 90
[9]; [27]
  Plant response rating, Foxtail, Giant: 100
[9]; [21]
  Plant response rating, Foxtail, Giant: 100
Corn (Zea mays); [26]
  Plant response rating, Corn: 0
Corn (Zea mays); [19]
  Plant response rating, Corn: 60
Corn (Zea mays); [27]
  Plant response rating, Corn: 0
Corn (Zea mays); [21]
  Plant response rating, Corn: 80
[10]; [26]
  Plant response rating, Pigweed: 0
[10]; [19]
  Plant response rating, Pigweed: 0
[10]; [27]
  Plant response rating, Pigweed: 0
[10]; [21]
  Plant response rating, Pigweed: 30
